Data reported in patent publication US20200029558A1, “Biocidal Microcapsules for Biofouling Control” (Greenseal Research Ltd, priority 2016, published 2020).

What was measured:
Format in all cases: cell-based
[1] = test system: Staphylococcus aureus (ATCC25923); assay: Leaching tests on coated specimens (adapted OECD 313-2007), leaching waters assessed by bioassay; settings: after 30 days of exposure in artificial sea water, 120 rpm
Experimental: (§1) Bioassays were performed to assess the antimicrobial activity against Staphylococcus aureus (ATCC 25923) by the Well diffusion method, at different mediums (artificial sea water (Sera marine salt), DMSO and MilliQ water). Initially, the microorganisms were cultured on Muller-Hinton agar for bacteria Staphylococcus aureus. Then, 100 μL of a standardized microorganism suspension, corresponding to 0.5 McFarland, was used to inoculate a Petri dish of solid Mueller-Hinton medium. These suspensions were spread over the medium surface using a sterile swab. Subsequently, agar wells were made of approximately 5.0 mm in diameter with a Pasteur pipette. Then, 50 μL of each sample, negative control (DMSO) and positive control (Econea) for Gram positive bacteria (Staphylococcus aureus), were added on each of the wells. Plates were incubated at 37° C. for 24 hours. After this period, the diameters of the inhibition zones were measured and the results were expressed in millimeters (mm). […]
Leaching of the biocide through the paint films of coated specimens containing the developed biocidal MCs was assessed by leaching tests, following an adapted procedure from the standard OECD 313-2007. […] Finally, the antimicrobial activity of the leaching waters was assessed by bioassays against microorganisms such as Staphylococcus aureus, following the same procedure as described in the previous examples.

[2] = test system: Staphylococcus aureus (ATCC25923); assay: Antimicrobial activity of coating formulation films containing biocidal microcapsules
Experimental: as §1, with “(mm). The assay was performed under aseptic conditions and in triplicate [M. Pereira, D. Matias, F. Pereira, C. P. Reis, M. F. Simões, P. Rijo, Antimicrobial screening of Plectranthus madagascariensis and P. neochilus extracts, Biomedical and Biopharmaceutical Research, Vol. 12 (2015) 127-138].” for “(mm).”

[3] = test system: Staphylococcus aureus (ATCC 25923); assay: Well diffusion antimicrobial bioassay of microcapsules; settings: wells approx. 5.0 mm, 37° C. 24 hours
Experimental: Bioassays were performed to assess the antimicrobial activity against Staphylococcus aureus (ATCC 25923) by the Well diffusion method, at different mediums (artificial sea water (Sera marine salt), DMSO and MilliQ water). Initially, the microorganisms were cultured on Muller-Hinton agar for bacteria Staphylococcus aureus. Then, 100 μL of a standardized microorganism suspension, corresponding to 0.5 McFarland, was used to inoculate a Petri dish of solid Mueller-Hinton medium. These suspensions were spread over the medium surface using a sterile swab. Subsequently, agar wells were made of approximately 5.0 mm in diameter with a Pasteur pipette. Then, 50 μL of each sample, negative control (DMSO) and positive control (Econea) for Gram positive bacteria (Staphylococcus aureus), were added on each of the wells. Plates were incubated at 37° C. for 24 hours. After this period, the diameters of the inhibition zones were measured and the results were expressed in millimeters (mm). The assay was performed under aseptic conditions and in triplicate [M. Pereira, D. Matias, F. Pereira, C. P. Reis, M. F. Simões, P. Rijo, Antimicrobial screening of Plectranthus madagascariensis and P. neochilus extracts, Biomedical and Biopharmaceutical Research, Vol. 12 (2015) 127-138]. Following the above described procedure, different mediums were used to assess the bioactivity of microcapsules, such as artificial sea water, MilliQ water and dimethyl sulfoxide (DMSO) (Table 1).
Following similar bioassays procedures as example 1, different mediums were used to assess the bioactivity of microcapsules, such as artificial sea water, MilliQ water and dimethyl sulfoxide (DMSO) (Table 3).

## N#Cc1c(-c2ccc(Cl)cc2)[nH]c(C(F)(F)F)c1Br [Econea biocide, 2-(p-chlorophenyl)-3-cyano-4-bromo-5-trifluoromethyl pyrrole]
[1]
  Inhibition zones of leaching waters of immersed coated specimens: 20 mm
[2]; medium DMSO
  Inhibition zones of polyurethane based coating formulations: 20 mm
[2]; medium artificial sea water
  Inhibition zones of polyurethane based coating formulations: 18 mm
[3]; medium DMSO
  Inhibition zones: 19 mm
[3]; medium MilliQ water
  Inhibition zones: 23 mm
[3]; medium artificial sea water
  Inhibition zones: 20 mm
